Legend:
[1] = target: T1, MmTAS2R38WT-a (Macaca mulatta, UniProt F1T2U6); experiment: calcium imaging, fluo-4, FlexStation, HEK293T with G-alpha16gust44; format: cell-based
T1 construct: gene tas2r38; full-length TAS2R38, N-terminal first 45 residues of rat ssr3 and C-terminal last 8 residues of bovine rhodopsin as tags, pEAK10, HEK293T, co-expressed with chimeric G-alpha16gust44
T1 sequence (F1T2U6 1-333): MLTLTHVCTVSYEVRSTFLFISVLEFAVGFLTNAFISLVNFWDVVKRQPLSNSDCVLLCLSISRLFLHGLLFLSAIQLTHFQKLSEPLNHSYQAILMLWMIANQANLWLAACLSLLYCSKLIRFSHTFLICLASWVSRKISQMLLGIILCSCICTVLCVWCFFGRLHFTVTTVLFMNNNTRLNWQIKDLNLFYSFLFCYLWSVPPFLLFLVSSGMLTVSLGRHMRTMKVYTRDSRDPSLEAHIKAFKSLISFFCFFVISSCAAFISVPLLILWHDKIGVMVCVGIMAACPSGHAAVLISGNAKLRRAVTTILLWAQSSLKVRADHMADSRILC

[2] = target: T2, MfTAS2R38TR-K (Macaca fuscata, UniProt F1T2T8); details: truncated allele Mf-K; pH 7.4
T2 construct: gene tas2r38
T2 sequence (F1T2T8 1-237): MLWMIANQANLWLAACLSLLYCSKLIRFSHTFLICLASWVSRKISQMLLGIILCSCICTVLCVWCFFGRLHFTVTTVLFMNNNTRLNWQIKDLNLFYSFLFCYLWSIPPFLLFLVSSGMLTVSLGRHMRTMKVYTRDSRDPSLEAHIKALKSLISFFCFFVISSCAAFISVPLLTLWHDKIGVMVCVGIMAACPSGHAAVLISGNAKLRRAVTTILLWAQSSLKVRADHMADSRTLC

Question: How did the EC50 [1] turn out when NC(=S)Nc1ccccc1 [phenylthiocarbamide] was run?
Answer: 560 nM

Question: And the “calcium imaging, fluo-4, FlexStation, HEK293T with G-alpha16gust44” value [2]?
Answer: failed to respond to PTC

Reference: article PMC4511751, “Rapid Expansion of Phenylthiocarbamide Non-Tasters among Japanese Macaques” (PLoS ONE, 2015)
